The nature of experiment [1]: DRUGMATRIX: Leukotriene, BLT (LTB4) radioligand binding (ligand: [3H]LTB4). In kind it is cell membranes, Membrane. To be noted: u-937; Not Active = under 50% inhibition at 10 µM.
The target of another experiment is Mu-type opioid receptor (Homo sapiens, UniProt P35372). Put plainly: DRUGMATRIX: Opiate mu (OP3, MOP) radioligand binding (ligand: [3H] Diprenorphine). The format is cell membranes, CHO-K1, Membrane. To be noted: cho-k1; Not Active = under 50% inhibition at 10 µM.
Mu-type opioid receptor, sequence (P35372 whole entry): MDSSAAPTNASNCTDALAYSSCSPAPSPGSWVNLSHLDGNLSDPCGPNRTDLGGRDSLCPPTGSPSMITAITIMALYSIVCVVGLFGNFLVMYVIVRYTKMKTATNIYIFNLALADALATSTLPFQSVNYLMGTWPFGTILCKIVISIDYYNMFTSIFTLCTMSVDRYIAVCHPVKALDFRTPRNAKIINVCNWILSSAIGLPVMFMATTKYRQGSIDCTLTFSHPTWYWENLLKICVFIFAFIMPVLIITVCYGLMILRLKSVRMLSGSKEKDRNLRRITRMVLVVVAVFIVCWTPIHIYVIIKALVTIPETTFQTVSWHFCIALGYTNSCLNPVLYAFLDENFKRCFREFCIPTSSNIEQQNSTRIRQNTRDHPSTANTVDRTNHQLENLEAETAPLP
Experiment [2] is described as follows: DRUGMATRIX: Serotonin (5-Hydroxytryptamine) 5-HT3 radioligand binding (ligand: [3H] GR-65630). In kind it is cell membranes, Membrane. The following applies: hek293, Not Active = under 50% inhibition at 10 µM.
The target in a further experiment is Insulin receptor (Rattus norvegicus, UniProt P15127). The format is cell membranes, Wistar, Liver, Membrane. Also: in other assays of this panel Not Active means under 50% inhibition at 10 µM.
Insulin receptor, sequence (P15127 27-759 limits assumed): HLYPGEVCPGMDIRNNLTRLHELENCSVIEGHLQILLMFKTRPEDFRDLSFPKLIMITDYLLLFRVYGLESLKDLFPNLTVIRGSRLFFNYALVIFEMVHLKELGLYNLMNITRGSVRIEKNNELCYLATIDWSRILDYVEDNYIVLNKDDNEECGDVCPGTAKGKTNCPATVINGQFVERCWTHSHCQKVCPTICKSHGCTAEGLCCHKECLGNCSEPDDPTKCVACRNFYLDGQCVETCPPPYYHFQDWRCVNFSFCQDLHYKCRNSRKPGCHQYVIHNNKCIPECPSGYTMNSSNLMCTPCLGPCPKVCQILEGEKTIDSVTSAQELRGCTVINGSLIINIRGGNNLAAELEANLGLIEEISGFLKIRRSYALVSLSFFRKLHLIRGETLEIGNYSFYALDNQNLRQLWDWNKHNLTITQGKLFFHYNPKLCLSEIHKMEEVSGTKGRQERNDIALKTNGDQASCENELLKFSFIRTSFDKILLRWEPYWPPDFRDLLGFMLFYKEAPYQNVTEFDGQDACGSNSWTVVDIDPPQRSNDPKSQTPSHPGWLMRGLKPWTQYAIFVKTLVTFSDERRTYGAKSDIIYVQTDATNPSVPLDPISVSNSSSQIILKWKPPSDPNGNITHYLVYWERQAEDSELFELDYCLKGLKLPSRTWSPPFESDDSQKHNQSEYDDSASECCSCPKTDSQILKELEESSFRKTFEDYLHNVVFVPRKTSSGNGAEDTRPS
Insulin receptor, sequence (P15127 764-1383 limits assumed): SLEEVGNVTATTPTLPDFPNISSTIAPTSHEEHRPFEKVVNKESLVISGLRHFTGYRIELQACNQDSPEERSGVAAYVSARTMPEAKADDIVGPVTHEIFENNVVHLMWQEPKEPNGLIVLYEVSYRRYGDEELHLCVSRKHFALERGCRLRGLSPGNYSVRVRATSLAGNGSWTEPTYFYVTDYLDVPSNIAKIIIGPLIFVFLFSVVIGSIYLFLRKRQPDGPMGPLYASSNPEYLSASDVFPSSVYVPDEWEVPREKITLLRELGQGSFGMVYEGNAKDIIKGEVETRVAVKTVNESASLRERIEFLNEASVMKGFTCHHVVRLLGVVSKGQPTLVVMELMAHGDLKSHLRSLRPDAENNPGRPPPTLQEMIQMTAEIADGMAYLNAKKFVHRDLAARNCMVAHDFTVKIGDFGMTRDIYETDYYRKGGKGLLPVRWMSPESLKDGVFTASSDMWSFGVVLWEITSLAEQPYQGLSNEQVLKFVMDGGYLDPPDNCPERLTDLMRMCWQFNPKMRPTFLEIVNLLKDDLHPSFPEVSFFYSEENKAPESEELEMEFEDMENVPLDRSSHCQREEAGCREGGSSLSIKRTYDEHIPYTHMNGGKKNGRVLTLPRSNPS
The target in experiment [3] is T1, 5-hydroxytryptamine receptor 2C (Homo sapiens, UniProt P28335).
T1 sequence (P28335 whole entry): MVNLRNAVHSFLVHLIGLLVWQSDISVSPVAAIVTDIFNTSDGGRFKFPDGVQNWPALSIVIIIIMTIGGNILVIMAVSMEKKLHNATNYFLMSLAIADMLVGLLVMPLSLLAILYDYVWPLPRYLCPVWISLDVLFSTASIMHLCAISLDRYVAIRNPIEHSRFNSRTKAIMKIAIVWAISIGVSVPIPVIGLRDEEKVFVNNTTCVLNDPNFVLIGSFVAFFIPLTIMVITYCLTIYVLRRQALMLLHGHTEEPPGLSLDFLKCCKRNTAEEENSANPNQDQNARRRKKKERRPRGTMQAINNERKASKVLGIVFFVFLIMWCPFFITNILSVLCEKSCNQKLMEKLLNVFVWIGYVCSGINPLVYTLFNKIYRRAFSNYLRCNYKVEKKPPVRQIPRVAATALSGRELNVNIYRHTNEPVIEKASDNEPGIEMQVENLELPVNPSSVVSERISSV
Put plainly: DRUGMATRIX: Serotonin (5-Hydroxytryptamine) 5-HT2C radioligand binding (ligand: [3H] Mesulergine). The following applies: cho-k1; Not Active = under 50% inhibition at 10 µM. In kind it is cell membranes, CHO-K1, Membrane.

The nature of experiment [4]: DRUGMATRIX: Phorbol Ester radioligand binding (ligand: [3H] PDBu). In kind it is cell membranes, Mus musculus, ICR, Brain, Membrane. The following applies: Not Active = under 50% inhibition at 10 µM.

As a reminder, the IC50 is the concentration at which inhibition is half-maximal. A word on the Ki: it is a measure of affinity in units of concentration, obtained from inhibition or displacement.

For `CC(C)CN(C[C@@H](O)[C@H](Cc1ccccc1)NC(=O)O[C@H]1CCOC1)S(=O)(=O)c1ccc(N)cc1`, the IC50 result (in experiment [1]; at Mu-type opioid receptor; in experiment [2]; against Insulin receptor; in experiment [3]; in experiment [4]) was “Not Active” throughout. In addition, the Ki result in experiment [1], in experiment [2] and in experiment [4] was “Not Active” in each case.
As to `c1ccc(Nc2ccc(Nc3ccccc3)cc2)cc1`, the IC50 entry (in experiment [1]; at Mu-type opioid receptor; in experiment [2]; on Insulin receptor; in experiment [3]; in experiment [4]) was “Not Active” throughout. The Ki entry in experiment [1], in experiment [2] and in experiment [4] was “Not Active” in each case.
`COc1cc2c3cc1Oc1cc(ccc1O)C[C@@H]1c4c(cc(OC)c(O)c4Oc4ccc(cc4)C[C@@H]3N(C)CC2)CC[N+]1(C)C.[Cl-]`: the IC50 entry (in experiment [1]; on Mu-type opioid receptor; in experiment [2]; at Insulin receptor; in experiment [3]; in experiment [4]) was “Not Active” in each case. In addition, the Ki result in experiment [1], in experiment [2] and in experiment [4] was “Not Active” throughout.
As for `NC(=O)N1c2ccccc2CCc2ccccc21`, the IC50 entry (in experiment [1]; on Mu-type opioid receptor; in experiment [2]; at Insulin receptor; in experiment [3]; in experiment [4]) was “Not Active” each time. Also, the Ki result in experiment [1], in experiment [2] and in experiment [4] was “Not Active” in each case.
On to `O=C1CC[C@@H](N2C(=O)c3ccccc3C2=O)C(=O)N1`, for which the IC50 entry (in experiment [1]; at Mu-type opioid receptor; in experiment [2]; on Insulin receptor; in experiment [3]; in experiment [4]) was “Not Active” each time. In addition, the Ki entry in experiment [1], in experiment [2] and in experiment [4] was “Not Active” in each case.
Turning to `Cc1onc(O)c1CC(N)C(=O)O` (racemic) [(R,S)-AMPA], the IC50 entry (in experiment [1]; at Mu-type opioid receptor; in experiment [2]; on Insulin receptor; in experiment [3]; in experiment [4]) was “Not Active” in each case. In addition, the Ki entry in experiment [1], in experiment [2] and in experiment [4] was “Not Active” throughout.
For the molecule `Cc1ccc2cc3c(ccc4ccccc43)c3c2c1CC3` [3-METHYLCHOLANTHRENE], the IC50 result (in experiment [1]; in experiment [2]; at Insulin receptor; in experiment [3]; in experiment [4]) was “Not Active” each time. The Ki entry in experiment [1], in experiment [2] and in experiment [4] was “Not Active” in each case.
Consider `CC[C@@]1(O)C[C@H](O[C@H]2C[C@H](N(C)C)[C@H](O[C@H]3C[C@H](O)[C@H](O[C@H]4CCC(=O)[C@H](C)O4)[C@H](C)O3)[C@H](C)O2)c2c(cc3c(c2O)C(=O)c2c(O)cccc2C3=O)[C@H]1C(=O)OC` [ACLARUBICIN], for which the IC50 result (in experiment [1]; at Mu-type opioid receptor; in experiment [2]; on Insulin receptor; in experiment [3]; in experiment [4]) was “Not Active” throughout. Besides, the Ki entry in experiment [1], in experiment [2] and in experiment [4] was “Not Active” each time.
As for `Nc1nc2c(ncn2COCCO)c(=O)[nH]1` [ACYCLOVIR], the IC50 result (in experiment [1]; on Mu-type opioid receptor; in experiment [2]; against Insulin receptor; in experiment [3]; in experiment [4]) was “Not Active” in each case. In addition, the Ki entry in experiment [1], in experiment [2] and in experiment [4] was “Not Active” each time.
In the case of `Cc1ccc(/N=C/N(C)/C=N/c2ccc(C)cc2C)c(C)c1` [AMITRAZ], the IC50 result (in experiment [1]; in experiment [2]; against Insulin receptor; in experiment [3]; in experiment [4]) was “Not Active” each time. In addition, the Ki result in experiment [1], in experiment [2] and in experiment [4] was “Not Active” each time.
As to `COc1ccc(C[C@H]2NC[C@H](O)[C@H]2OC(C)=O)cc1` [ANISOMYCIN], the IC50 result (in experiment [1]; in experiment [2]; at Insulin receptor; in experiment [3]; in experiment [4]) was “Not Active” each time. Moreover, the inhibition constant (Ki) result (in experiment [1]; in experiment [2]; at Insulin receptor; in experiment [3]; in experiment [4]) was “Not Active” in each case.
`O=C(O)CCCc1ccc(N(CCCl)CCCl)cc1` [CHLORAMBUCIL]: the IC50 result (in experiment [1]; in experiment [2]; at Insulin receptor; in experiment [3]; in experiment [4]) was “Not Active” throughout. The Ki result in experiment [1], in experiment [2] and in experiment [4] was “Not Active” each time.
With `CN(C)CCCN1c2ccccc2Sc2ccc(Cl)cc21` [CHLORPROMAZINE], the IC50 entry in experiment [1] is “Not Active”; in experiment [2] (read-out: IC50), 7.37 µM; at Insulin receptor it was “Not Active”; in experiment [4], “Not Active”. Besides, the Ki entry was “Not Active” in experiment [1], 1.66 µM in experiment [2] (read-out: Ki) and “Not Active” in experiment [4].
With `CC1=C2C(=CO[C@H](C)[C@H]2C)C(O)=C(C(=O)O)C1=O` [CITRININ], the IC50 result (in experiment [1]; in experiment [2]; against Insulin receptor; in experiment [3]; in experiment [4]) was “Not Active” throughout. The Ki entry in experiment [1], in experiment [2] and in experiment [4] was “Not Active” in each case.
Consider `CC(C)(C)NCC(O)c1cc(Cl)c(N)c(Cl)c1` (stereo not drawn) [CLENBUTEROL], for which the IC50 entry (in experiment [1]; in experiment [2]; against Insulin receptor; in experiment [3]; in experiment [4]) was “Not Active” in each case. Further, the Ki entry in experiment [1], in experiment [2] and in experiment [4] was “Not Active” throughout.
For `COc1cc2nc(N3CCN(C(=O)C4COc5ccccc5O4)CC3)nc(N)c2cc1OC` (stereo not drawn) [DOXAZOSIN], the IC50 result (in experiment [1]; on Mu-type opioid receptor; in experiment [2]; against Insulin receptor; in experiment [4]) was “Not Active” each time. In addition, the Ki entry in experiment [1], in experiment [2] and in experiment [4] was “Not Active” throughout.
With `CCCN1C[C@H](CSC)C[C@@H]2c3cccc4[nH]cc(c34)C[C@H]21` [PERGOLIDE], the IC50 entry (in experiment [1]; on Mu-type opioid receptor; in experiment [2]; on Insulin receptor; in experiment [4]) was “Not Active” each time. Moreover, the Ki entry in experiment [1], in experiment [2] and in experiment [4] was “Not Active” in each case.
As to `Cc1ccc(N(CC2=NCCN2)c2cccc(O)c2)cc1` [PHENTOLAMINE], the IC50 entry (in experiment [1]; on Mu-type opioid receptor; in experiment [2]; on Insulin receptor; in experiment [4]) was “Not Active” throughout. Besides, the Ki result in experiment [1], in experiment [2] and in experiment [4] was “Not Active” in each case.
With CADMIUM ACETATE, the IC50 entry (in experiment [1]; in experiment [2]; on Insulin receptor; in experiment [3]; in experiment [4]) was “Not Active” in each case. Also, the Ki entry (in experiment [1]; in experiment [2]; at Insulin receptor; in experiment [3]; in experiment [4]) was “Not Active” throughout.
Regarding LEAD (II) ACETATE, the IC50 result (in experiment [1]; in experiment [2]; on Insulin receptor; in experiment [3]; in experiment [4]) was “Not Active” throughout. For the same molecule, the Ki result (in experiment [1]; in experiment [2]; on Insulin receptor; in experiment [3]; in experiment [4]) was “Not Active” each time.
As for LIPOPOLYSACCHARIDE E. COLI O55:B5, the IC50 result (in experiment [1]; in experiment [2]; at Insulin receptor; in experiment [3]; in experiment [4]) was “Not Active” throughout. The Ki result (in experiment [1]; in experiment [2]; on Insulin receptor; in experiment [3]; in experiment [4]) was “Not Active” in each case.
